Measurements reported in patent publication US20220081412A1, “QUINOLINYL-PYRAZINE-CARBOXAMIDE COMPOUNDS AND USES THEREOF” (The Regents of the University of Michigan, priority 2018, published 2022).

Test system: MIA PaCa-2 cells
Experiment: Bru-seq analysis for nascent RNA synthesis (log2FC of genes, GSEA gene sets)
Assay type: cell-based, human
Conditions: 4 h
[1] = gene set HALLMARK_IL2_STAT5_SIGNALING
[2] = gene set HALLMARK_IL6_JAK_STAT3_SIGNALING
[3] = gene set HALLMARK_MTORC1_SIGNALING
[4] = gene set HALLMARK_OXIDATIVE_PHOSPHORYLATION
[5] = gene set HALLMARK_PI3K_AKT_MTOR_SIGNALING
[6] = gene set HALLMARK_TNFA_SIGNALING_VIA_NFKB
[7] = gene set HALLMARK_UNFOLDED_PROTEIN_RESPONSE
[8] = gene set HALLMARK_UV_RESPONSE_UP
[9] = gene set HALLMARK_XENOBIOTIC_METABOLISM
[10] = gene set HELLER_SILENCED_BY_METHYLATION_DN
[11] = gene set KAN_RESPONSE_TO_ARSENIC_TRIOXIDE
[12] = gene set KEGG_ACUTE_MYELOID_LEUKEMIA
[13] = gene set KEGG_ADIPOCYTOKINE_SIGNALING_PATHWAY
[14] = gene set KEGG_ALDOSTERONE_REGULATED_SODIUM_REABSORPTION
[15] = gene set KEGG_ANTIGEN_PROCESSING_AND_PRESENTATION
[16] = gene set KEGG_CITRATE_CYCLE_TCA_CYCLE
[17] = gene set KEGG_ENDOMETRIAL_CANCER
[18] = gene set KEGG_FATTY_ACID_METABOLISM
[19] = gene set KEGG_FRUCTOSE_AND_MANNOSE_METABOLISM
[20] = gene set KEGG_GLYCEROLIPID_METABOLISM
[21] = gene set KEGG_GLYCOLYSIS_GLUCONEOGENESIS
[22] = gene set KEGG_INSULIN_SIGNALING_PATHWAY
[23] = gene set KEGG_MAPK_SIGNALING_PATHWAY
[24] = gene set KEGG_MTOR_SIGNALING_PATHWAY
[25] = gene set KEGG_OXIDATIVE_PHOSPHORYLATION
[26] = gene set KEGG_PARKINSONS_DISEASE
[27] = gene set KEGG_PORPHYRIN_AND_CHLOROPHYLL_METABOLISM
[28] = gene set KEGG_PPAR_SIGNALING_PATHWAY
[29] = gene set KEGG_PYRUVATE_METABOLISM
[30] = gene set KEGG_SNARE_INTERACTIONS_IN_VESICULAR_TRANSPORT
[31] = gene set KEGG_SYSTEMIC_LUPUS_ERYTHEMATOSUS
[32] = gene set KEGG_VALINE_LEUCINE_AND_ISOLEUCINE_DEGRADATION
[33] = gene set PODAR_RESPONSE_TO_ADAPHOSTIN_UP
[34] = gene set REACTOME_CHOLESTEROL_BIOSYNTHESIS
[35] = gene set REACTOME_RNA_POL_I_PROMOTER_OPENING
[36] = gene set REACTOME_UNFOLDED_PROTEIN_RESPONSE
[37] = gene set SCHMIDT_POR_TARGETS_IN_LIMB_BUD_UP
[38] = gene set WILCOX_RESPONSE_TO_PROGESTERONE_UP
[39] = gene set ZHANG_TLX_TARGETS_36HR_UP
[40] = top downregulated genes, MIA PaCa-2 cells

SMILES: CCN(CC)CCCC(C)Nc1cnc(C(=O)Nc2cc(C)cc3cccnc23)cn1 (stereo not shown) [J4, 5-((5-(diethylamino)pentan-2-yl)amino)-N-(6-methylquinolin-8-yl)pyrazine-2-carboxamide]
- ES [1]: 0.424
- NES [1]: 1.597
- ES [2]: 0.443
- NES [2]: 1.405
- ES [3]: 0.626
- NES [3]: 2.450
- ES (gene set HALLMARK_MYOGENESIS): 0.541
- NES (gene set HALLMARK_MYOGENESIS): 1.885
- ES [4]: 0.403
- NES [4]: 1.601
- ES (gene set HALLMARK_P53_PATHWAY): 0.565
- NES (gene set HALLMARK_P53_PATHWAY): 2.171
- ES (gene set HALLMARK_PEROXISOME): 0.457
- NES (gene set HALLMARK_PEROXISOME): 1.612
- ES [5]: 0.566
- NES [5]: 2.033
- ES [6]: 0.536
- NES [6]: 2.043
- ES [7]: 0.582
- NES [7]: 2.173
- ES [8]: 0.478
- NES [8]: 1.769
- ES [9]: 0.409
- NES [9]: 1.503
- ES [10]: 0.714
- NES [10]: 2.396
- ES (gene set HORTON_SREBF_TARGETS): 0.911
- NES (gene set HORTON_SREBF_TARGETS): 2.446
- ES [11]: 0.655
- NES [11]: 2.270
- ES [12]: 0.524
- NES [12]: 1.701
- ES [13]: 0.547
- NES [13]: 1.770
- ES [14]: 0.556
- NES [14]: 1.480
- ES [15]: 0.536
- NES [15]: 1.506
- ES [16]: 0.561
- NES [16]: 1.683
- ES [17]: 0.482
- NES [17]: 1.543
- ES [18]: 0.507
- NES [18]: 1.505
- ES [19]: 0.547
- NES [19]: 1.529
- ES [20]: 0.573
- NES [20]: 1.640
- ES [21]: 0.578
- NES [21]: 1.735
- ES [22]: 0.455
- NES [22]: 1.663
- ES (gene set KEGG_LYSOSOME): 0.611
- NES (gene set KEGG_LYSOSOME): 2.224
- ES [23]: 0.393
- NES [23]: 1.504
- ES (gene set KEGG_MELANOGENESIS): 0.526
- NES (gene set KEGG_MELANOGENESIS): 1.713
- ES [24]: 0.530
- NES [24]: 1.631
- ES [25]: 0.464
- NES [25]: 1.705
- ES [26]: 0.424
- NES [26]: 1.536
- ES [27]: 0.613
- NES [27]: 1.657
- ES [28]: 0.583
- NES [28]: 1.733
- ES (gene set KEGG_PROSTATE_CANCER): 0.445
- NES (gene set KEGG_PROSTATE_CANCER): 1.564
- ES [29]: 0.525
- NES [29]: 1.529
- ES [30]: 0.535
- NES [30]: 1.642
- ES [31]: 0.689
- NES [31]: 2.185
- ES [32]: 0.491
- NES [32]: 1.536
- ES (gene set LEONARD_HYPDXIA): 0.811
- NES (gene set LEONARD_HYPDXIA): 2.480
- ES (gene set LE_EGR2_TARGETS_DN): 0.689
- NES (gene set LE_EGR2_TARGETS_DN): 2.287
- ES [33]: 0.678
- NES [33]: 2.520
- ES (gene set QI_HYPDXIA): 0.624
- NES (gene set QI_HYPDXIA): 2.258
- ES (gene set REACTOME_AMYLO1DS): 0.753
- NES (gene set REACTOME_AMYLO1DS): 2.309
- ES [34]: 0.913
- NES [34]: 2.477
- ES [35]: 0.820
- NES [35]: 2.377
- ES [36]: 0.651
- NES [36]: 2.246
- ES [37]: 0.921
- NES [37]: 2.469
- ES [38]: 0.642
- NES [38]: 2.380
- ES [39]: 0.615
- NES [39]: 2.339
- ES (gene set ZHANG_TLX_TARGETS_UP): 0.710
- NES (gene set ZHANG_TLX_TARGETS_UP): 2.353
- log2FC ABCA1 [40]: −1.14
- log2FC AGAP6 [40]: −0.85
- log2FC AKAP5 [40]: −0.77
- log2FC CACNG8 [40]: −0.75
- log2FC CCND1 [40]: −0.67
- log2FC FERMT1 [40]: −0.91
- log2FC GPR75-ASB3 [40]: −0.89
- log2FC GPR135 [40]: −1.30
- log2FC HRH4 [40]: −1.09
- log2FC MX2 [40]: −0.78
- log2FC NEXN [40]: −0.76
- log2FC NOG [40]: −0.93
- log2FC NOXRED1 [40]: −0.73
- log2FC NPIPB11 [40]: −0.67
- log2FC NPR2 [40]: −1.08
- log2FC NTSR1 [40]: −0.89
- log2FC PTCH2 [40]: −0.72
- log2FC RFLNB [40]: −0.79
- log2FC SPDYA [40]: −1.18
- log2FC SYCE2 [40]: −0.98
- log2FC TAS2R20 [40]: −0.81
- log2FC TNS4 [40]: −1.05
- log2FC TSPAN4 [40]: −0.68
- log2FC TXNRD3NB [40]: −0.72
- log2FC ZDHHC11 [40]: −0.86
